In PubChem BioAssay (NCI):
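Grown in 96-well plates, cells were treated for 48 hours with each compound at five concentrations. Insufficient inhibition: endpoint recorded as highest concentration tested. Here, GI50 denotes the concentration required for 50% inhibition of growth. Definition used: TGI = concentration required for complete inhibition of growth.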

Legend:
Assay in all cases: inhibition of tumour cell growth, NCI panel, 48 h
786-0 renal = test system: 786-0 renal
SF-539 CNS = test system: SF-539 CNS
SR leukemia = test system: SR leukemia
A498 renal = test system: A498 renal
RPMI-8226 leukemia = test system: RPMI-8226 leukemia
NCI-H226 lung = test system: NCI-H226 lung
A549 NSCLC = test system: A549 NSCLC
LOX IMVI melanoma = test system: LOX IMVI melanoma
BT-549 breast = test system: BT-549 breast
UO-31 renal = test system: UO-31 renal
MDA-MB-435 = test system: MDA-MB-435
SN12C renal = test system: SN12C renal
HS 578T breast = test system: HS 578T breast
DU-145 prostate = test system: DU-145 prostate
HCC-2998 colon = test system: HCC-2998 colon
HL-60(TB) leukemia = test system: HL-60(TB) leukemia
SF-295 CNS = test system: SF-295 CNS
CCRF-CEM leukemia = test system: CCRF-CEM leukemia
HT29 colon = test system: HT29 colon
UACC-257 melanoma = test system: UACC-257 melanoma
ACHN renal = test system: ACHN renal
SNB-19 CNS = test system: SNB-19 CNS
KM12 colon = test system: KM12 colon
PC-3 prostate = test system: PC-3 prostate
U251 CNS = test system: U251 CNS
SK-OV-3 ovarian = test system: SK-OV-3 ovarian
HOP-92 NSCLC = test system: HOP-92 NSCLC

In the case of CCN(CC)c1ccc2c(c1)Oc1nc(N)c(C#N)c(N)c1C2Sc1ccc(C)cc1 (stereo not drawn), the TGI (786-0 renal) was 3.45 µM, the GI50 (SF-539 CNS) was 1.6 µM and the TGI (SF-539 CNS) was 2.96 µM. The GI50 (SR leukemia) was 0.261 µM, the TGI (SR leukemia) was 0.834 µM and the GI50 (A498 renal) was 1.89 µM. The TGI (A498 renal) was 3.3 µM, the GI50 (RPMI-8226 leukemia) was 1.9 µM and the TGI (RPMI-8226 leukemia) was 5.61 µM. It also gave a GI50 (NCI-H226 lung) of 2.01 µM, a TGI (NCI-H226 lung) of 4.62 µM and a GI50 (A549 NSCLC) of 1.93 µM. The TGI (A549 NSCLC) was 3.84 µM, the GI50 (LOX IMVI melanoma) was 0.32 µM and the TGI (LOX IMVI melanoma) was 1.06 µM. The GI50 (BT-549 breast) was 1.16 µM, the TGI (BT-549 breast) was 2.5 µM and the GI50 (UO-31 renal) was 1.35 µM. It also gave a TGI (UO-31 renal) of 2.63 µM, a GI50 (MDA-MB-435) of 1.25 µM and a TGI (MDA-MB-435) of 2.54 µM. The GI50 (SN12C renal) was 1.68 µM, the TGI (SN12C renal) was 3.15 µM and the GI50 (HS 578T breast) was 1.59 µM. For the same compound, the TGI (HS 578T breast) was 4.57 µM, the GI50 (DU-145 prostate) was 1.8 µM and the TGI (DU-145 prostate) was 3.21 µM. It also gave a GI50 (HCC-2998 colon) of 1.78 µM, a TGI (HCC-2998 colon) of 3.32 µM and a GI50 (HL-60(TB) leukemia) of 0.564 µM. The TGI (HL-60(TB) leukemia) was 3.14 µM, the GI50 (SF-295 CNS) was 1.75 µM and the TGI (SF-295 CNS) was 3.19 µM. It also gave a GI50 (CCRF-CEM leukemia) of 0.366 µM, a TGI (CCRF-CEM leukemia) of 2.11 µM and a GI50 (HT29 colon) of 1.84 µM. For the same compound, the TGI (HT29 colon) was 3.41 µM, the GI50 (UACC-257 melanoma) was 1.85 µM and the TGI (UACC-257 melanoma) was 3.39 µM. For the same compound, the GI50 (ACHN renal) was 1.58 µM, the TGI (ACHN renal) was 2.93 µM and the GI50 (SNB-19 CNS) was 1.36 µM. For the same compound, the TGI (SNB-19 CNS) was 2.67 µM, the GI50 (KM12 colon) was 1.05 µM and the TGI (KM12 colon) was 2.28 µM. For the same compound, the GI50 (PC-3 prostate) was 1.26 µM, the TGI (PC-3 prostate) was 2.6 µM and the GI50 (U251 CNS) was 1.2 µM. For the same compound, the TGI (U251 CNS) was 2.74 µM, the GI50 (SK-OV-3 ovarian) was 1.94 µM and the TGI (SK-OV-3 ovarian) was 3.47 µM. The GI50 (HOP-92 NSCLC) was 1.31 µM and the TGI (HOP-92 NSCLC) was 2.6 µM.
